This note sets out measurements from US12428395B2, “Heterocyclic compounds as kinase inhibitor and uses thereof” (SPEROGENIX THERAPEUTICS LIMITED, priority 2019, dated 2025).

pIC50: −log10 of the molar value. A value given as a limit tells only on which side of the number the result lay.

For this test, the target named is CHK-1 kinase (Homo sapiens (Human), UniProt O14757). The experiment in a line: CHK-1 Kinase Assay (Z-LYTE based TR-FRET). The test is classed as biochemical. As to conditions: for inhibition at 0.1 µM: 0.1 μM compound, read-out: % Inhibition of CHK-1 enzyme activity @ 0.1 μM; for inhibition at 1 µM: 1 μM compound, read-out: % Inhibition of CHK-1 enzyme activity @ 1 μM; for inhibition at 5 µM: 5 μM compound, read-out: % Inhibition of CHK-1 enzyme activity @ 5 μM. The protocol:
IC50 values of compounds for inhibition of CHK-1 kinase or percent inhibition at defined concentrations were determined by Z-LYTE™ based TR-FRET assay. Kinase reactions were performed in a 10 μL volume in low-volume 384-well plates. The concentration of substrate (Ser Thr 19) was maintained at 2 μM in the assay, and the kinase reaction buffer consisted of 50 mM HEPES pH 7.5, 0.01% BRIJ-35, 10 mM MgCl2, 1 mM EGTA, 2 mM DTT. Serially diluted compounds (3-fold) in DMSO (0.5% in final reaction) were incubated with cocktail of CHK-1 kinase (5 ng/ml; Cat #P3040, ThermoFisher), substrate Ser Thr 19, (2 μM; Cat #PV4529, ThermoFisher), ATP (53 μM; Cat #PV3227, ThermoFisher) and buffer. Kinase reactions were allowed to proceed for 1 hour at room temperature after which 5 μL of a 1:256 dilution of Development Reagent A was added. The plate was allowed to incubate at room temperature for 60 minutes before being read on a BMG Pherastar plate reader using the Z-LYTE™ filter block for Z-LYTE™ TR-FRET. The resulting TR-FRET emission ratio was used to calculate percent inhibition by normalizing with the control using the following formula: — [% Inhibition=1−{(% Phosphorylationsample/% Phosphorylationcontrol (0% Inhibition)}·100] For calculation of IC50, the percent inhibition obtained was plotted against the concentration of inhibitor, and the data was fit to a sigmoidal dose-response curve with a variable slope. The IC50 was calculated from the curve.

CHK-1 kinase, sequence (O14757 whole entry): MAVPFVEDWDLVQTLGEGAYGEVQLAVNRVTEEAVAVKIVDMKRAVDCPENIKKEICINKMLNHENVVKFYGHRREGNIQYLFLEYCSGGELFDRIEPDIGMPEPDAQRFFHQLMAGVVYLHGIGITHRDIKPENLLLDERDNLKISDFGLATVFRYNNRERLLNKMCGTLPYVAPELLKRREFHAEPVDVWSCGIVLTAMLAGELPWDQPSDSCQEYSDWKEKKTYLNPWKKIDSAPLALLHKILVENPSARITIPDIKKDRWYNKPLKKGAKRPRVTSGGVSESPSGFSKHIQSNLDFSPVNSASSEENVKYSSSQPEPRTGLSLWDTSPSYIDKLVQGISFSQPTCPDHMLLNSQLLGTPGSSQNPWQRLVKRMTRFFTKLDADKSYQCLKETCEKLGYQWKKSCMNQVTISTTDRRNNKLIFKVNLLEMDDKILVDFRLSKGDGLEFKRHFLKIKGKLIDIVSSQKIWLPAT

With `COc1ccc(-c2nnc(Nc3cnc(C#N)cn3)cc2NCC2CCNCC2)cc1` [1.23, 5-(6-(4-methoxyphenyl)-5-(piperidin-4-ylmethylamino)pyridazin-3-ylamino)pyrazine-2-carbonitrile], the inhibition at 0.1 µM came out at 7%, the inhibition at 1 µM came to 18% and the inhibition at 5 µM turned out to be 41%.

`N#Cc1cnc(Nc2cc(NCC3CCNCC3)c(C3CC3)nn2)cn1` [1.18, 5-(6-cyclopropyl-5-(piperidin-4-ylmethylamino)pyridazin-3-ylamino)pyrazine-2-carbonitrile]: the inhibition at 0.1 µM is 6%, the inhibition at 1 µM stood at 24% and the inhibition at 5 µM turned out to be 59%.

Take `Cn1cc(Nc2cc(NCC3CNCCO3)c(-c3ccccc3)nn2)cn1` (centres unmarked) [1.4, N3-(1-methyl-1H-pyrazol-4-yl)-N5-(morpholin-2-ylmethyl)-6-phenylpyridazine-3,5-diamine]: the inhibition at 1 µM was determined as 3% and the inhibition at 5 µM was determined as 5%.

Take `N#Cc1cnc(Nc2cc(NCC3CCNCC3)c(C(F)(F)F)nn2)cn1` [1.8, 4-((6-(5-cyanopyrazin-2-ylamino)-3-(trifluoromethyl)pyridazin-4-ylamino)methyl)piperidinium 2,2,2-trifluoroacetate]: the pIC50 is 5.24.

As for `CN(C)C(=O)c1nnc(Nc2cnc(C#N)cn2)cc1NCC1CCNCC1` [1.32, 6-(5-cyanopyrazin-2-ylamino)-N,N-dimethyl-4-(piperidin-4-ylmethylamino)pyridazine-3-carboxamide], the inhibition at 0.1 µM worked out at 3%, the inhibition at 1 µM was 3% and the inhibition at 5 µM was 15%.

`CC(C)(C)OC(=O)N1CCOC(CNc2cc(Nc3cnc(C#N)cn3)nnc2C(F)(F)F)C1` (centres unmarked) [1.5, tert-butyl 2-((6-(5-cyanopyrazin-2-ylamino)-3-(trifluoromethyl)pyridazin-4-ylamino)methyl)morpholine-4-carboxylate] had a negative logarithm of the IC50 (pIC50) of less than 5.00.

`N#Cc1cnc(Nc2cc(NCC3CCNCC3)c(-c3ccc(F)cc3)nn2)cn1` [1.21, 5-(6-(4-fluorophenyl)-5-(piperidin-4-ylmethylamino)pyridazin-3-ylamino)pyrazine-2-carbonitrile]: the inhibition at 0.1 µM amounted to 3%, the inhibition at 1 µM came out at 5% and the inhibition at 5 µM was found to be 33%.

Regarding `COc1cccc(-c2nnc(Nc3cnc(C#N)cn3)cc2NCC2CCNCC2)c1` [1.26, 5-(6-(3-methoxyphenyl)-5-(piperidin-4-ylmethylamino)pyridazin-3-ylamino)pyrazine-2-carbonitrile], the inhibition at 0.1 µM came to 0%, the inhibition at 1 µM amounted to 9% and the inhibition at 5 µM is 26%.

As to `Cn1ccc(-c2nnc(Nc3cnc(C#N)cn3)cc2OCC2CNCCO2)n1` (centres unmarked) [1.13, 5-(6-(1-methyl-1H-pyrazol-3-yl)-5-(morpholin-2-ylmethoxy)pyridazin-3-ylamino)pyrazine-2-carbonitrile], the inhibition at 0.1 µM was 9%, the inhibition at 1 µM was determined as 9% and the inhibition at 5 µM worked out at 11%.

Consider `N#Cc1cnc(Nc2cc(NCC3CCNCC3)c(-c3ccc(CO)cc3)nn2)cn1` [1.27, 5-(6-(4-(hydroxymethyl)phenyl)-5-(piperidin-4-ylmethylamino)pyridazin-3-ylamino)pyrazine-2-carbonitrile], for which the inhibition at 0.1 µM worked out at 0%, the inhibition at 1 µM was 8% and the inhibition at 5 µM is 34%.

In the case of `N#Cc1cnc(Nc2cc(NCC3CNCCO3)c(C3CC3)nn2)cn1` (centres unmarked) [1.17, 5-(6-cyclopropyl-5-(morpholin-2-ylmethylamino)pyridazin-3-ylamino)pyrazine-2-carbonitrile], the inhibition at 0.1 µM turned out to be 3%, the inhibition at 1 µM amounted to 12% and the inhibition at 5 µM is 41%.

With `N#Cc1cnc(Nc2cc(NCC3CCNCC3)c(-c3cccc(N4CCCCC4)c3)nn2)cn1` [1.25, 5-(6-(3-(piperidin-1-yl)phenyl)-5-(piperidin-4-ylmethylamino)pyridazin-3-ylamino)pyrazine-2-carbonitrile], the inhibition at 0.1 µM was 8%, the inhibition at 1 µM was determined as 10% and the inhibition at 5 µM came to 42%.

For the compound `N#Cc1cnc(Nc2cc(NCC3CCNCC3)c(-c3ccc(Oc4ccccc4)cc3)nn2)cn1` [1.22, 5-(6-(4-phenoxyphenyl)-5-(piperidin-4-ylmethylamino)pyridazin-3-ylamino)pyrazine-2-carbonitrile], the inhibition at 0.1 µM worked out at 8%, the inhibition at 1 µM is 27% and the inhibition at 5 µM was 65%.

As for `CN1CCC(CNc2cnnc(Nc3cnc(C#N)cn3)c2)CC1` [1.10, 5-(5-((1-methylpiperidin-4-yl)methylamino)pyridazin-3-ylamino)pyrazine-2-carbonitrile], the inhibition at 0.1 µM turned out to be 8%, the inhibition at 1 µM was found to be 3% and the inhibition at 5 µM was determined as 15%.

Regarding `Cn1ccc(-c2nnc(Nc3cnc(C#N)cn3)cc2NCC2CCNCC2)n1` [1.28, 5-(6-(1-methyl-1H-pyrazol-3-yl)-5-(piperidin-4-ylmethylamino)pyridazin-3-ylamino)pyrazine-2-carbonitrile], the inhibition at 0.1 µM worked out at 13%, the inhibition at 1 µM was found to be 48% and the inhibition at 5 µM was determined as 86%.

Turning to `N#Cc1cnc(Nc2cc(NCC3CCNCC3)c(OCC(F)(F)F)nn2)cn1` [1.33, 5-(5-(piperidin-4-ylmethylamino)-6-(2,2,2-trifluoroethoxy)pyridazin-3-ylamino)pyrazine-2-carbonitrile], the inhibition at 0.1 µM amounted to 10%, the inhibition at 1 µM came to 35% and the inhibition at 5 µM is 75%.

Consider `N#Cc1cnc(Nc2cc(NCC3CCNCC3)c(-c3cccc4[nH]ccc34)nn2)cn1` [1.24, 5-(6-(1H-indol-4-yl)-5-(piperidin-4-ylmethylamino)pyridazin-3-ylamino)pyrazine-2-carbonitrile], for which the inhibition at 0.1 µM amounted to 2%, the inhibition at 1 µM amounted to 2% and the inhibition at 5 µM amounted to 34%.

In the case of `Cc1nnc(Nc2cnc(C#N)cn2)cc1NCC1CCNCC1` [1.15, 5-(6-methyl-5-(piperidin-4-ylmethylamino)pyridazin-3-ylamino)pyrazine-2-carbonitrile], the inhibition at 0.1 µM was 7%, the inhibition at 1 µM worked out at 8% and the inhibition at 5 µM turned out to be 23%.

`Cc1nnc(Nc2cnc(C#N)cn2)cc1NCC1CNCCO1` (centres unmarked) [1.14, 5-(6-methyl-5-(morpholin-2-ylmethylamino)pyridazin-3-ylamino)pyrazine-2-carbonitrile]: the inhibition at 0.1 µM turned out to be 2%, the inhibition at 1 µM is 15% and the inhibition at 5 µM is 45%.

On to `CNC(=O)c1nnc(Nc2cnc(C#N)cn2)cc1NCC1CCOCC1` [1.30, 6-(5-cyanopyrazin-2-ylamino)-N-methyl-4-((tetrahydro-2H-pyran-4-yl)methylamino)pyridazine-3-carboxamide], for which the inhibition at 0.1 µM turned out to be 28%, the inhibition at 1 µM turned out to be 78% and the inhibition at 5 µM stood at 97%.

For the compound `N#Cc1cnc(Nc2cc(NCC3CCOCC3)c(C(N)=O)nn2)cn1` [1.29, 6-(5-cyanopyrazin-2-ylamino)-4-((tetrahydro-2H-pyran-4-yl)methylamino)pyridazine-3-carboxamide], the inhibition at 0.1 µM worked out at 19%, the inhibition at 1 µM amounted to 60% and the inhibition at 5 µM turned out to be 93%.

Consider `CC(C)Oc1nnc(Nc2cnc(C#N)cn2)cc1NCC1CCNCC1` [1.31, 5-(6-isopropoxy-5-(piperidin-4-ylmethylamino)pyridazin-3-ylamino)pyrazine-2-carbonitrile], for which the inhibition at 0.1 µM is 0%, the inhibition at 1 µM was 11% and the inhibition at 5 µM is 25%.

Regarding `N#Cc1cnc(Nc2cc(OCC3CNCCO3)cnn2)cn1` (centres unmarked) [1.9, 5-(5-(morpholin-2-ylmethoxy)pyridazin-3-ylamino)pyrazine-2-carbonitrile], the negative-log IC50 (pIC50) is less than 5.00.
